The values that follow come from US20250144091A1, “SITAGLIPTIN PREPARATION AND METHOD OF STORAGE THEREOF” (SAWAI PHARMACEUTICAL CO., LTD., priority 2023, published 2025).

For data set [1] the following is noted: set limit for nitrosamine in sitagliptin preparation; cited from earlier work.
Data set [2] is described as follows: Acceptable daily intake of NTTP (EMA/FDA). The following applies: 37 ng corresponds to 0.088 ppm. As for the experimental part: Recently, the European Medicines Agency (EMA) and the U.S. Food and Drug Administration (FDA) have announced that 7-Nitroso-3-(trifluoromethyl)-5,6,7,8-tetrahydro[1,2,4]triazolo-[4,3-a]pyrazine (NTTP), which is classified into nitrosamines, has been detected in a sitagliptin preparation. Nitrosamines are known to be potentially carcinogenic, and an acceptable intake of NTTP is set at 37 ng daily. NTTP is produced by the reaction of 3-(trifluoromethyl) 5,6,7,8-tetrahydro[1,2,4]triazolo-[4,3-a]pyrazine, which is produced by hydrolysis of sitagliptin, with nitrogen oxides such as nitrous acid. Nitrogen oxides are contained in small amounts in additives, as well as in the water and air used in the preparation process. Although the production pathway of NTTP is expected as described above, its reactivity is unknown. Therefore, a specific method for reducing the amount of NTTP in a preparation was completely unknown.
Generally, the criterion for reporting the amount of related substances in a preparation is 1,000 ppm, but it is a very difficult task to suppress the production of NTTP in a sitagliptin preparation because a daily acceptable intake of NTTP of 37 ng corresponds to 0.088 ppm.

As to `O=NN1CCn2c(nnc2C(F)(F)F)C1` [NTTP, 7-Nitroso-3-(trifluoromethyl)-5,6,7,8-tetrahydro[1,2,4]triazolo-[4,3-a]pyrazine], the “acceptable intake of NTTP” value in data set [1] was 37 ng daily. The “daily acceptable intake of NTTP expressed as content in the preparation” value in data set [2] worked out at 0.088 ppm.
